Results reported in ChEMBL document CHEMBL1201862, “PubChem BioAssay data set” (2004).
Activity calls are given as the source filed them.

How the values were obtained:
[1] = target: T1, Ubiquitin-conjugating enzyme E2 N (Homo sapiens, UniProt P61088); assay type: functional
T1 sequence (P61088 whole entry): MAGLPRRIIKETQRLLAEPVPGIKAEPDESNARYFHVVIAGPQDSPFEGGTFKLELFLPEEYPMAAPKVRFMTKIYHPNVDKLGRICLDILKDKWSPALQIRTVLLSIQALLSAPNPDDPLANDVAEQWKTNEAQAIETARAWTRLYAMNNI

[2] = Luminescence Cell-Based Dose Retest to Confirm Inhibitors of Cancer Stem Cells. [Related pubchem assays (depositor defined):AID2717, AID2721]; assay type: functional; details: Homo sapiens
[3] = target: T2, C-C chemokine receptor type 6 (Homo sapiens, UniProt P51684); experiment: CCR6 receptor antagonists, dose response, cell-based, luminescent beta-arrestin readout (AID 504728); assay type: functional
T2 sequence (P51684 whole entry): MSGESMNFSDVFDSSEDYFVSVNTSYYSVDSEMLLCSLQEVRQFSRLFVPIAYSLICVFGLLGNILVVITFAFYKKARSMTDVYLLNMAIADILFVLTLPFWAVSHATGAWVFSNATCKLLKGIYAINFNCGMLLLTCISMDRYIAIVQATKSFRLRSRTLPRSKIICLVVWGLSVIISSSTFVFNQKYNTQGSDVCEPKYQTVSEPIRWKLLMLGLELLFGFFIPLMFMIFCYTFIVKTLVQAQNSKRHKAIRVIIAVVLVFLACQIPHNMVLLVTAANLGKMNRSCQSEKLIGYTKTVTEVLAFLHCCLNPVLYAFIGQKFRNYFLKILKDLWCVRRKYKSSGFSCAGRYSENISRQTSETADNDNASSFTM

[4] = target: T3, Streptokinase A (Streptococcus pyogenes serotype M1, UniProt P10520); experiment: S. pyogenes streptokinase expression inhibitors, potency, dose response, plasminogen activation absorbance, OD405 (AID 1914); assay type: functional, Streptococcus pyogenes M1 GAS;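 note: secreted streptokinase activity via plasminogen activation per viability signal from cell pellet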
T3 sequence (P10520 whole entry): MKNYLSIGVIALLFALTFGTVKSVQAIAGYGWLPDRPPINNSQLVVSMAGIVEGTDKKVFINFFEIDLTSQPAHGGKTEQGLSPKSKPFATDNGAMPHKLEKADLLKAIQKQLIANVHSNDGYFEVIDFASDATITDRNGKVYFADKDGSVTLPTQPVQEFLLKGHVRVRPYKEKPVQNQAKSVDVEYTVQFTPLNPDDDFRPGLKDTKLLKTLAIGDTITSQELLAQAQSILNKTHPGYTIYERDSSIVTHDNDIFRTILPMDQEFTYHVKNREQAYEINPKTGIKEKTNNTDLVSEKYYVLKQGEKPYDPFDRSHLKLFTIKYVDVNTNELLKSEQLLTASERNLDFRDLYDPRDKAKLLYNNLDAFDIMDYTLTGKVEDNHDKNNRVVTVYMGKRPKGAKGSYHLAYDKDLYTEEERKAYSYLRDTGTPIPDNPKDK

[5] = test system: Streptococcus sp. 'group A'; experiment: growth inhibition of control SK(-) GAS strain, dose response, counter-screen for streptokinase expression inhibitor project, luminescence, kanamycin, BacTiterGlo, confirmation (AID 1900); assay type: functional, organism-based
[6] = test system: Streptococcus; experiment: Group A Streptococcus viability loss, dose response, counter-screen for streptokinase expression inhibitor project, luminescence, BacTiterGlo (AID 1915); assay type: functional, organism-based;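 note: potency for reduction of bacterial viability or growth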
[7] = target: Beta-galactosidase (Escherichia coli, UniProt Q8VNN2); experiment: beta-galactosidase enzyme inhibitors and activators, dose response, artefact control for CCR6 antagonist project, biochemical, E. coli enzyme, set 3 (AID 504712); assay type: functional
[8] = target: G-protein coupled receptor 55 (Homo sapiens, UniProt Q9Y2T6); experiment: GPR55 antagonists blocking LPI-driven arrestin recruitment, primary screen, imaging, U2OS, beta-arrestin-GFP, LPI agonist (AID 2013); assay type: functional;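 note: antagonist potency measured as reduced agonist-driven arrestin aggregation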
[9] = target: T1, Ubiquitin-conjugating enzyme E2 N; assay type: functional; remark: listed apart in the source
[10] = target: T4, Bcl-2-related protein A1 (Mus musculus, UniProt Q07440); assay type: functional;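 note: confirmatory dose–response counterscreen on Bfl-1, used to check hits from a UBC13 polyubiquitin inhibitor campaign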
T4 sequence (Q07440 whole entry): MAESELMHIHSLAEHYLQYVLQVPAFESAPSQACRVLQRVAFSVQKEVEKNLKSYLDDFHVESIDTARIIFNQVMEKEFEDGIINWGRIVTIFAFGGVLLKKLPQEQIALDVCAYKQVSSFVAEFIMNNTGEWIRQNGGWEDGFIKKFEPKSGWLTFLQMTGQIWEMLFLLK

[11] = target: T5, Type-1 angiotensin II receptor (Homo sapiens, UniProt P30556); experiment: AT1 receptor agonists, dose response, selectivity assay for APJ receptor agonist project, cell-based, uHTS hits (AID 488865); assay type: functional;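 note: beta-arrestin recruitment to AT1 measured by enzyme fragment complementation luminescence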
T5 sequence (P30556 whole entry): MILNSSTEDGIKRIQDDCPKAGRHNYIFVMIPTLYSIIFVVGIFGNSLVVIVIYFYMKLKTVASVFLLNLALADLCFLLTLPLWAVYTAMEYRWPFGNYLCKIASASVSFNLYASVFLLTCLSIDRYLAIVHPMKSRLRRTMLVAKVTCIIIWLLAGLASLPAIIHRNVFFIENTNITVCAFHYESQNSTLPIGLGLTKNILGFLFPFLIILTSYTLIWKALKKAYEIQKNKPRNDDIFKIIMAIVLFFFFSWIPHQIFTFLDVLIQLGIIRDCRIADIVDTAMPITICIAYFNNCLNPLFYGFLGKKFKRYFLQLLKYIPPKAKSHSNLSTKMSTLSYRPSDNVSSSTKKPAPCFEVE

[12] = target: Melanocortin receptor 4 (Homo sapiens, UniProt P32245); assay type: functional, cell-based;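 note: Cell-based assay with luminescence read-out, confirmatory dose-response testing for agonist activity of biased ligands at MC4R; human U2OS cells with tagged receptor and beta-arrestin; potency of agonists that increase receptor coupling to beta-arrestin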
[13] = target: Integrin alpha-4 (Homo sapiens, UniProt P13612); experiment: VLA-4 integrin allosteric ligands, SAR follow-up, cell-based, LIBS antibody binding, flow cytometry (AID 488791); assay type: functional
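Throughout, for AC50: cells exposed to compound for roughly 70 hours or longer before luminescence read.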

Sequence of Beta-galactosidase (Q8VNN2 whole entry): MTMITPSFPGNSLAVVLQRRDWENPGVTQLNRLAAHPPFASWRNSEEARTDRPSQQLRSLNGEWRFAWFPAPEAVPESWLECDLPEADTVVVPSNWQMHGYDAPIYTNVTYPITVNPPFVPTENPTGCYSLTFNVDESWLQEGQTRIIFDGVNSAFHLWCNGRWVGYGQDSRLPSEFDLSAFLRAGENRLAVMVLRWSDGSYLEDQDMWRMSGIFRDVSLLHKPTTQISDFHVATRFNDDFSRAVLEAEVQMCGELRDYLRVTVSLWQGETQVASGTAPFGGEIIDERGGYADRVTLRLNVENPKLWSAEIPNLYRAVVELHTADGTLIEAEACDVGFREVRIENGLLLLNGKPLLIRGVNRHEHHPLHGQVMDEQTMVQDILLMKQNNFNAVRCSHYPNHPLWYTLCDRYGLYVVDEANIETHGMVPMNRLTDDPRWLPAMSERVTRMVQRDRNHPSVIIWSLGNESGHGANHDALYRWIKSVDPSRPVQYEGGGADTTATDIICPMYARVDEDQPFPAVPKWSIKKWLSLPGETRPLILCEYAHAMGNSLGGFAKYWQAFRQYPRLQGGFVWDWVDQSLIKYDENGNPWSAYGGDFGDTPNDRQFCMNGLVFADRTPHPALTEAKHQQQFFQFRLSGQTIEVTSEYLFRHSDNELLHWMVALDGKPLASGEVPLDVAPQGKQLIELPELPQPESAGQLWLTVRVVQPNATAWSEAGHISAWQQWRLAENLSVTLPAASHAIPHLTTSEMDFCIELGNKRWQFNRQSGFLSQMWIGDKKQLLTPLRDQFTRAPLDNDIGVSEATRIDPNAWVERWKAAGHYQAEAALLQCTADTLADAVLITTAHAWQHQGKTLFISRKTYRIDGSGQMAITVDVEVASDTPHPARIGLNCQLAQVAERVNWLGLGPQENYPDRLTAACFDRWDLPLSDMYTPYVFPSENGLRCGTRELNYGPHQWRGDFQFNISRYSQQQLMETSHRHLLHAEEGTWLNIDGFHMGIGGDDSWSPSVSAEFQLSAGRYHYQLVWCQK
Sequence of Integrin alpha-4 (P13612 whole entry): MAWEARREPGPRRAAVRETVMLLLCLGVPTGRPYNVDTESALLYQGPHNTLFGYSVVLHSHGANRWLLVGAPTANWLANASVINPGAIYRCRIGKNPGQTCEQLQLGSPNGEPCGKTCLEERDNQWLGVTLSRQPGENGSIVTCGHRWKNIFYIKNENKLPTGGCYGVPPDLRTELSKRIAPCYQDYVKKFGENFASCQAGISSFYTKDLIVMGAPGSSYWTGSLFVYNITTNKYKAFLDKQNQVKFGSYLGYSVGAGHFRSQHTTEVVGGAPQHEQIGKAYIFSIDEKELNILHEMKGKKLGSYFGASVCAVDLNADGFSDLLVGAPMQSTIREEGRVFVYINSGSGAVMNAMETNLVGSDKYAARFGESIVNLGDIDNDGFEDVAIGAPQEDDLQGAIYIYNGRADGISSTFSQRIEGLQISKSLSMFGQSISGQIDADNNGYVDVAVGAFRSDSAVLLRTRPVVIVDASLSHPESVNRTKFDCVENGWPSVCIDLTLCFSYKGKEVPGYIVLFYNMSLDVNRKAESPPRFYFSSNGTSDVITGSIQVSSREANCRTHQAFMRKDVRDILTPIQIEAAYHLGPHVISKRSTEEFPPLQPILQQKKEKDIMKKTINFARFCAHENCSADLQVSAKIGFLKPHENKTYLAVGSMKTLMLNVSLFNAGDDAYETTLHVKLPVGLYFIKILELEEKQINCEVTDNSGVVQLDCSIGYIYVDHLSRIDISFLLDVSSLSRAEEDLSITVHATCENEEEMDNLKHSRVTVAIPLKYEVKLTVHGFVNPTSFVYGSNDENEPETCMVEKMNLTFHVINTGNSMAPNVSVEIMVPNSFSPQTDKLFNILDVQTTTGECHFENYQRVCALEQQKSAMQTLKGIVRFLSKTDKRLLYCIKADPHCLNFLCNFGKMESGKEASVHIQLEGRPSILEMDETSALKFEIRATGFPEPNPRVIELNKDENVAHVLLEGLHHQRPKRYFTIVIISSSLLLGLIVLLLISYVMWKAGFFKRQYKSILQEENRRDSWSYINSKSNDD
Sequence of G-protein coupled receptor 55 (Q9Y2T6 whole entry): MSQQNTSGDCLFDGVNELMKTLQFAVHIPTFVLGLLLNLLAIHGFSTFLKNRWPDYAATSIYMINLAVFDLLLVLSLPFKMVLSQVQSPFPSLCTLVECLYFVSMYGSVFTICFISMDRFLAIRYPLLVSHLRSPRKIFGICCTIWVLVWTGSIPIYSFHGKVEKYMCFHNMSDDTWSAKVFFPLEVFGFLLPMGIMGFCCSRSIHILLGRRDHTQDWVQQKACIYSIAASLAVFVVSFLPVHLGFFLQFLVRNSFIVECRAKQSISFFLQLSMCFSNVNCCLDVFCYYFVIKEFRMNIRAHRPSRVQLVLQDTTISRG
Sequence of Melanocortin receptor 4 (P32245 whole entry): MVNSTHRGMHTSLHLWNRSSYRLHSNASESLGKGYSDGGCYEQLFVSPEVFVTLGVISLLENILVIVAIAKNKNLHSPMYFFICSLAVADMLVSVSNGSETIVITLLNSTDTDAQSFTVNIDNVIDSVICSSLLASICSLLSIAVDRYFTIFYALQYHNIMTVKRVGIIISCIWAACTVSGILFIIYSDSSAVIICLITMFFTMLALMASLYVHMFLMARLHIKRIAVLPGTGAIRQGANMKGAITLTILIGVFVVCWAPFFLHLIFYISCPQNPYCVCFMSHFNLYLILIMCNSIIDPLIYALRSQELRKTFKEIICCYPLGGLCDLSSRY

## Cc1c(CCOC(=O)C2C3CC4CC(C3)CC2C4)sc[n+]1CC(=O)c1ccc(Br)cc1 (stereo not given)
[1]
  IC50: > 20 µM (inactive)
[2]
  AC50: 2.17 µM (active)
[3]
  IC50: 27 µM (inactive)
[4]
  EC50: 21.9 µM (active)
[5]
  EC50: 8.85 µM (active)
[6]
  EC50: > 150 µM (not active)
[7]
  IC50: > 66.6 µM (inactive)
[8]
  IC50: 3.25 µM (active)

## CCOc1ccc2nc(N(CCCN(C)C)C(=O)c3ccc(S(=O)(=O)N4CCc5ccccc5C4)cc3)sc2c1
[1]
  IC50: 6.95 µM (active)
[9]
  IC50: 5.52 µM (active)
[10]
  IC50: > 20 µM (inactive)
[11]
  EC50: > 100 µM (inactive)

## c1ccc(-c2sc3ccccc3c2-c2ccc(OCCN3CCCC3)cc2)cc1
[2]
  AC50: 2.21 µM (active)
[12]
  EC50: > 89.2 µM (inactive)
[13]
  EC50: 26.1 µM (active)
